Source: patent US20120309798A1, “Tumour Treatment Agents and Method” (Vivolux AB, priority 2009, published 2012)

Each molecule was assayed on cells from CLL and normal PBMC (assay: Tumor cell specificity: drug effect in CLL cells versus normal PBMC, FMCA). Conditions: PBMC n=4, CLL n=9; t-test, p<0.05; FIG. 2c.
Type: cell-based, human
From the text: (§1) Cell culture. Patient tumor samples (98) and preparations (4) of normal peripheral blood mononuclear cells (PBMC), detailed in Table 1, were used to determine the activity of VLX50 and, for comparison, six other cytotoxic drugs chosen to represent different mechanistic classes.
(§2) The tumor samples were obtained by bone marrow/peripheral blood sampling, routine surgery or diagnostic biopsy. Leukemic cells and PBMCs were isolated by 1.077 g ml-1 Ficoll-Paque centrifugation (Larsson et al., 1992). Tumor tissue from solid tumor samples was minced into small pieces and tumor cells were isolated by collagenase dispersion followed by Percoll density gradient centrifugation (Csoka et al., 1994). The sampling of primary tumor cells was approved by the local ethics committee at Uppsala University Hospital. Cell viability was determined by trypan blue exclusion test and the proportion of tumor cells in the preparation was judged by inspection of May-Grunvald-Giemsa stained cytospin slides (FIG. 1a). All samples used in this study contained more than 70% tumor cells.
Fluorometric Microculture Cytotoxicity Assay. The Fluorometric Microculture Cytotoxicity Assay, FMCA, described in detail previously (Lindhagen et al., 2008), is based on measurement of fluorescence generated from hydrolysis of fluorescein diacetate (FDA) to fluorescein by cells with intact plasma membranes. Cells were seeded in the drug-prepared 384-well plates using the pipetting robot Precision 2000 (Bio-Tek Instruments Inc., Winooski, Vt.). The number of cells per well were 2500-5000. Two columns without drugs served as controls and one column with medium only served as blank. The plates were incubated for 72 h and then transferred to an integrated HTS SAIGAN Core System consisting of an ORCA robot (Beckman Coulter) with CO2 incubator (Cytomat 2C, Kendro, Sollentuna, Sweden), dispensor module (Multidrop 384, Titertek, Huntsville, Ala.), washer module (ELx 405, Bio-Tek Instruments Inc), delidding station, plate hotels, barcode reader (Beckman Coulter), liquid handler (Biomek 2000, Beckman Coulter) and a multipurpose reader (FLUOstar Optima, BMG Labtech GmbH, Offenburg, Germany) for automated FMCA. Quality criteria for a successful assay included a mean coefficient of variation of less than 30% in the control and a fluorescence signal in control wells of more than 5 times the blank.
Dose-response data were analyzed using calculated survival index values and the software program GraphPadPrism4 (GraphPad Software Inc., San Diego, Calif., USA). Data was processed using non-linear regression to a standard sigmoidal dose-response model to obtain IC50-values (inhibitory concentration 50%).
In FIG. 2a the response rates for VLX50 at 4 μM for the patient samples are listed according to diagnoses. […] Lung cancer, AML and CML had intermediate response rates. The relative effect of VLX50 and six standard cytotoxic drugs, in solid and hematological tumor samples, expressed as the S/H ratio, is shown in FIG. 2b. […] The results for the standard drugs are consistent with their main clinical use.

| SMILES | Activity in CLL compared with PBMC |
| --- | --- |
| COc1cc([C@@H]2c3cc4c(cc3[C@@H](O[C@@H]3O[C@@H]5CO[C@@H](C)O[C@H]5[C@H](O)[C@H]3O)[C@H]3COC(=O)[C@H]23)OCO4)cc(OC)c1O [etoposide] | No difference |
| CC[C@]1(O)C[C@H]2CN(CCc3c([nH]c4ccccc34)[C@@](C(=O)OC)(c3cc4c(cc3OC)N(C=O)[C@H]3[C@@](O)(C(=O)OC)[C@H](OC(C)=O)[C@]5(CC)C=CCN6CC[C@]43[C@@H]65)C2)C1 [vincristine] | significantly more active in CLL than in PBMC |
| COc1cccc2c1C(=O)c1c(O)c3c(c(O)c1C2=O)C[C@@](O)(C(=O)CO)C[C@@H]3O[C@H]1C[C@H](N)[C@H](O)[C@H](C)O1 [doxorubicin] | No difference |
| N[C@@H](Cc1ccc(N(CCCl)CCCl)cc1)C(=O)O [melphalan] | significantly higher activity in PBMC than in CLL cells |
| Nc1ccn([C@@H]2O[C@H](CO)[C@@H](O)[C@@H]2O)c(=O)n1 [cytarabin] | significantly higher activity in PBMC than in CLL cells |
| N.N.[Cl][Pt][Cl] [cisplatin, reference compound] | No difference |

Each molecule was assayed on solid and hematological patient tumor samples (assay: Relative effect on solid and hematological tumor samples (S/H ratio), FMCA). Conditions: n=98 patient samples; FIG. 2b.
Type: cell-based, human
From the text: as §1
as §2, with “The sampling of primary tumor cells was approved by the local ethics committee at Uppsala University Hospital.” left out, “All samples used in this study contained more than 70% tumor cells.” left out
Fluorometric Microculture Cytotoxicity Assay. The Fluorometric Microculture Cytotoxicity Assay, FMCA, described in detail previously (Lindhagen et al., 2008), is based on measurement of fluorescence generated from hydrolysis of fluorescein diacetate (FDA) to fluorescein by cells with intact plasma membranes. […] Quality criteria for a successful assay included a mean coefficient of variation of less than 30% in the control and a fluorescence signal in control wells of more than 5 times the blank. […]

| SMILES | S/H ratio (ratio between total response rates for solid and hematological samples) |
| --- | --- |
| N.N.[Cl][Pt][Cl] [cisplatin, reference compound] | 1.2 |
